The record followed here is patent US20060154970A1, “Alanines compounds, method of preparing them and their use” (priority 2003, published 2006).

In data set [1] the test system is 3T3-L1 preadipocytes. Briefly: Insulin-sensitizing activity in 3T3-L1 preadipocyte model, triglyceride accumulation in cells as indication of differentiation. The format is cell-based. The following applies: for activation at 0.01 µM / activation at 0.1 µM / activation at 1 µM: Mus musculus, 3T3-L1, read-out: The Percentage of Triglyceride Increased in 3T3-L1 Cells; for activation at 0.01 µM / activation at 0.1 µM / activation at 1 µM / The Percentage of Triglyceride Increased in 3T3-L1 Cells: average data in 3 pores (Rosiglitazone: n = 22, mean ± SE); for insulin-sensitizing activity (in words): summary of table 2. How it is done:
Insulin-sensitizing agents can promote the differentiation of preadipocytes toward adipocytes, thus insulin-sensitizing agents could be identified according to the differentiation of pre-adipocytes. Following the methods reported in the literature [Kletzin B F. Mol. Pharm. 1991, 41, 393], the insulin-sensitizing activities of the compounds of formula (I) of the present invention were evaluated in 3T3-L1 pradipocyte model with triglyceride accumulation in cells as the indication of differentiation.
The 3T3-L1 preadipocytes were incubated in DMEM (Dulbecco's Modified Eagle's Medium) containing 10% NBS (newborn calf serum) and subcultured every 3 days. The calls were transferred to 24-pore plates, and after the pores were filled completely the cells were treated with IBMX (isobutylmethylxanthine) (0.5 mmol/L), DEX (dexamethasone) (1 μmol/L) and insulin (1.0 μmol/L) for 48 h. Different amounts of test compounds were incubated with the cells until the end of the experiment. Cells were collected and the contents of triglyceride and protein therein were determined by colorimetry. Enhancements of triglyceride in cells after drug-administrating were calculated.
The positive control group was rosiglitazone, and the solvent control group was a culturing medium containing 0.1% of DMSO. The enhancement of triglyceride in cells was determined in three different concentrations (0.01, 0.1, 1 μmol/L) of the tested compounds.

Molecules are shown by their SMILES.

With `CC(C)[C@H]1CC[C@H](C(=O)N[C@@H](Cc2ccc(OCc3ccccc3)cc2)C(=O)O)CC1` [Compound 9, (2S)-2-[N-(trans-4-isopropylcyclohexylcarbonyl)amino]-3-(4-benzyloxyphenyl)propionic acid], the melting point is 140 to 142 °C (dec.). Besides, the activation at 0.01 µM in data set [1] (concentration 0.01 μmol/L) is 6%. In addition, the activation at 0.1 µM in data set [1] (concentration 0.1 μmol/L) came out at 3.35%. In addition, the activation at 1 µM in data set [1] (concentration 1 μmol/L) was -0.69%.
`CC(C)[C@H]1CC[C@H](C(=O)N[C@H](Cc2ccc(O)cc2)C(=O)O)CC1` [Compound 18, (2R)-2-[N-(trans-4-isopropylcyclohexylcarbonyl)amino]-3-(4-hydroxyphenyl)propionic acid] came in with a melting point of 156 to 157 °C.
As to `CCOc1ccc(C[C@H](NC(=O)[C@H]2CC[C@H](C(C)C)CC2)C(=O)O)cc1` [Compound 13, (2S)-2-[N-(trans-4-isopropylcyclohexylcarbonyl)amino]-3-(4-ethoxyphenyl)propionic acid], the melting point lay in the range of 168 to 170 °C. In addition, in data set [1] (concentration 0.01 μmol/L), the activation at 0.01 µM was 1.89%. Further, the activation at 0.1 µM in data set [1] (concentration 0.1 μmol/L) was found to be 1.83%. In addition, the activation at 1 µM in data set [1] (concentration 1 μmol/L) is -4.74%.
Molecule `CC(C)[C@H]1CC[C@H](C(=O)N[C@@H](Cc2ccc(OCc3ccc(C(F)(F)F)cc3)cc2)C(=O)O)CC1` [Compound 7, (2S)-2-[N-(trans-4-isopropylcyclohexylcarbonyl)amino]-3-[4-(4-trifluoromethylbenzyloxy)phenyl]propionic acid] gave a melting point of 171 to 172 °C. In data set [1] (concentration 0.01 μmol/L), the activation at 0.01 µM turned out to be 11.8%. In data set [1] (concentration 0.1 μmol/L), the activation at 0.1 µM is 5.8%. The activation at 1 µM in data set [1] (concentration 1 μmol/L) came out at 4.68%.
As for `CCCCOc1ccc(C[C@H](NC(=O)[C@H]2CC[C@H](C(C)C)CC2)C(=O)O)cc1` [Compound 11, (2S)-2-[N-(trans-4-isopropylcyclohexylcarbonyl)amino]-3-(4-butoxyphenyl)propionic acid], the activation at 0.01 µM in data set [1] (concentration 0.01 μmol/L) amounted to 0%. The activation at 0.1 µM in data set [1] (concentration 0.1 μmol/L) amounted to 0.36%. Moreover, in data set [1] (concentration 1 μmol/L), the activation at 1 µM came to 2.23%.
Take `CC(C)[C@H]1CC[C@H](C(=O)N[C@@H](Cc2ccc(O)cc2)C(=O)O)CC1` [Compound 17, (2S)-2-[N-(trans-4-isopropylcyclohexylcarbonyl)amino]-3-(4-hydroxyphenyl)propionic acid]: the melting point lay within 156 to 157 °C. In addition, the activation at 0.01 µM in data set [1] (concentration 0.01 μmol/L) is 0.22%. For the same molecule, in data set [1] (concentration 0.1 μmol/L), the activation at 0.1 µM was 10.8%. Further, the activation at 1 µM in data set [1] (concentration 1 μmol/L) was 0.85%.
For `COc1ccc(C[C@H](NC(=O)[C@H]2CC[C@H](C(C)C)CC2)C(=O)O)cc1` [Compound 15, (2S)-2-[N-(trans-4-isopropylcyclohexylcarbonyl)amino]-3-(4-methoxyphenyl)propionic acid], in that order: 149 to 151 °C, -0.21%, 5.99% and 5.04%.
As to `Cc1oc(-c2ccccc2)nc1CCOc1ccc(C[C@@H](NC(=O)[C@H]2CC[C@H](C(C)C)CC2)C(=O)O)cc1` [Compound 2, (2R)-2-[N-(trans-4-isopropylcyclohexylcarbonyl)amino]-3-[4-[2-(5-methyl-2-phenyl-4-oxazolyl)ethoxy]phenyl]propionic acid], the melting point is 151 to 153 °C (dec.). The activation at 0.01 µM in data set [1] (concentration 0.01 μmol/L) came to 10.7%. Further, in data set [1] (concentration 0.1 μmol/L), the activation at 0.1 µM stood at 16.5%. Also, the activation at 1 µM in data set [1] (concentration 1 μmol/L) is 30.7%. Also, the “insulin-sensitizing activity (in words)” value in data set [1] was “stronger insulin-sensitizing activity”.
Regarding `CC(C)[C@H]1CC[C@H](C(=O)N[C@H](Cc2ccc(OCc3ccccc3)cc2)C(=O)O)CC1` [Compound 10, (2R)-2-[N-(trans-4-isopropylcyclohexylcarbonyl)amino]-3-(4-benzyloxyphenyl)propionic acid], the melting point is 140 to 142 °C (dec.).
In turn, `CC(C)[C@H]1CC[C@H](C(=O)N[C@H](Cc2ccc(OCCN(C)c3nc4ccccc4o3)cc2)C(=O)O)CC1` [Compound 4, (2R)-2-[N-(trans-4-isopropylcyclohexylcarbonyl)amino]-3-[4-[2-[N-methyl-N-(2-benzoxazolyl)amino]ethoxy]phenyl]propionic acid] returned a melting point of 179 to 180 °C. In data set [1] (concentration 0.01 μmol/L), the activation at 0.01 µM was -4.77%. Besides, the activation at 0.1 µM in data set [1] (concentration 0.1 μmol/L) was found to be 5.05%. Moreover, the activation at 1 µM in data set [1] (concentration 1 μmol/L) turned out to be 11%.
For `Cc1oc(-c2ccccc2)nc1CCOc1ccc(C[C@H](NC(=O)[C@H]2CC[C@H](C(C)C)CC2)C(=O)O)cc1` (relative stereo) [Compound 1, (2S)-2-[N-(trans-4-isopropylcyclohexylcarbonyl)amino]-3-[4-[2-(5-methyl-2-phenyl-4-oxazole)ethoxy]phenyl]propionic acid], the “The Percentage of Triglyceride Increased in 3T3-L1 Cells” value in data set [1] (concentration 0.01 μmol/L) stood at 1.56%; in data set [1] (concentration 0.1 μmol/L), 21.18%; in data set [1] (concentration 1 μmol/L) it was 47.09%. In addition, in data set [1], the “insulin-sensitizing activity (in words)” value is “stronger insulin-sensitizing activity”.
Molecule `CC(C)[C@H]1CC[C@H](C(=O)N[C@@H](Cc2ccc(OCCN(C)c3ccccn3)cc2)C(=O)O)CC1` [Compound 19, (2S)-2-[N-(trans-4-isopropylcyclohexylcarbonyl)amino]-3-[4-[2-[N-methyl-N-(2-pyridyl)amino]ethoxyl]phenyl]propionic acid] returned a melting point of 158 to 160 °C. The activation at 0.01 µM in data set [1] (concentration 0.01 μmol/L) is -1.46%. Besides, the activation at 0.1 µM in data set [1] (concentration 0.1 μmol/L) was -2.24%. For the same molecule, in data set [1] (concentration 1 μmol/L), the activation at 1 µM is -1.62%.
In the case of `CC(C)[C@H]1CC[C@H](C(=O)N[C@H](Cc2ccc(OCc3ccc(C(F)(F)F)cc3)cc2)C(=O)O)CC1` [Compound 8, (2R)-2-[N-(trans-4-isopropylcyclohexylcarbonyl)amino]-3-[4-(4-trifluoromethylbenzyloxy)phenyl]propionic acid], the melting point is 171 to 172 °C.
The molecule `CCCCOc1ccc(C[C@@H](NC(=O)[C@H]2CC[C@H](C(C)C)CC2)C(=O)O)cc1` [Compound 12, (2R)-2-[N-(trans-4-isopropylcyclohexylcarbonyl)amino]-3-(4-butoxyphenyl)propionic acid] had a melting point of 120 to 121 °C.
The same measure, in the same setting: with `CCOc1ccc(C[C@@H](NC(=O)[C@H]2CC[C@H](C(C)C)CC2)C(=O)O)cc1` [Compound 14, (2R)-2-[N-(trans-4-isopropylcyclohexylcarbonyl)amino]-3-(4-ethoxyphenyl)propionic acid] the figure was 168 to 170 °C.
`CC(C)[C@H]1CC[C@H](C(=O)N[C@@H](Cc2ccc(OCCN(C)c3nc4ccccc4o3)cc2)C(=O)O)CC1` [Compound 3, (2S)-2-[N-(trans-4-isopropylcyclohexylcarbonyl)amino]-3-[4-[2-[N-methyl-N-(2-benzoxazolyl)amino]ethoxy]phenyl]propionic acid]: the melting point is 179 to 180 °C (dec.). Besides, the activation at 0.01 µM in data set [1] (concentration 0.01 μmol/L) is -0.37%. Besides, the activation at 0.1 µM in data set [1] (concentration 0.1 μmol/L) was determined as 6.7%. Besides, the activation at 1 µM in data set [1] (concentration 1 μmol/L) was 20%.
With `CC(C)[C@H]1CC[C@H](C(=O)N[C@@H](Cc2ccc(OCCn3ccc4ccccc43)cc2)C(=O)O)CC1` [Compound 5, (2S)-2-[N-(trans-4-isopropylcyclohexylcarbonyl)amino]-3-[4-[2-(1-indolyl)ethoxy]phenyl]propionic acid], in data set [1] (concentration 0.01 μmol/L), the activation at 0.01 µM was -1.54%. The activation at 0.1 µM in data set [1] (concentration 0.1 μmol/L) was -4.64%. Moreover, the activation at 1 µM in data set [1] (concentration 1 μmol/L) was -6.92%.

The melting point is the temperature of the solid-liquid transition.
